Assay results from PMC11992225, “Antibacterial compounds against non-growing and intracellular bacteria” (npj Antimicrobials and Resistance, 2025).
pEC50: −log10 of the molar value. Values after ≈ are worked out from the molar mass of the structure shown. Where two headings read alike, the source gives them in different places.

Key:
E. coli CFT073 (UPEC) = assay: MIC, standard microdilution assay, growing UPEC; format: cell-based, Escherichia coli; details: E. coli
Outline: (§1)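 Broth microdilution was used throughout. UPEC, P. aeruginosa and S. aureus were tested in CA-MHB buffered with 40 mM HEPES (pH 7.4); UPEC was additionally tested in LPM with 30 mM MES (pH 5.5). S. flexneri was grown in TSB. All determinations were run in triplicate.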

P. aeruginosa DSM1117 = assay: MIC, standard microdilution assay, growing P. aeruginosa; format: cell-based, Pseudomonas aeruginosa; details: Pseudomonas aeruginosa, DSM1117; P. aeruginosa; CA-MHB pH 7.4; read-out: MIC (μM) CA-MHB
Outline: as §1

S. aureus DSM2569 = assay: MIC, standard microdilution assay, growing S. aureus; format: cell-based, Staphylococcus aureus; details: S. aureus, CA-MHB pH 7.4, read-out: MIC (μM) CA-MHB
Outline: as §1

non-growing UPEC CFT073 = assay: Dilution-regrowth assay (screen, hit validation, dose-response) on stationary-phase UPEC; format: cell-based, Escherichia coli; details: for Regrowth, OD600 at 6h or 8h after dilution into drug-free medium: average; for pEC50: Escherichia coli; for activity against non-growing UPEC in LPM (pH 5.5) compared to 1:4 CA-MHB (pH 7.4): regrowth delay and killing, Figs. 2 and 3
Outline: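 Regrowth (OD600 after 6 h, 37 °C) of diluted non-growing CFT073, following 24 h compound treatment of 24 h stationary cultures, defines activity relative to untreated control. Screen at 20 µM, validation at 20, 10, 5 µM (duplicates), dose–response in three biological replicates fitted by five-parameter logistic.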

[1] = tested on: non-growing P. aeruginosa DSM1117; assay: Dilution-regrowth assay (OD600, start-growth-time) on stationary-phase P. aeruginosa; format: cell-based, Pseudomonas aeruginosa; details: P. aeruginosa; for Regrowth, OD600 at 6h or 8h after dilution into drug-free medium: average
Method: To determine the spectrum of activity of the compounds that were effective against non-growing UPEC, we further assessed their efficacy against the well-characterized Gram-negative and Gram-positive reference strains P. aeruginosa DSM1117 and S. aureus DSM2569, respectively. The cultures were grown and treated for 24 h in 1:4 CA-MHB (pH 7.4). […].
For better characterization of the compounds causing the strongest regrowth delay, we performed the regrowth step of the dilution-regrowth experiments on a plate reader, measuring the OD600 at 20-min intervals for over 20 h instead of using an endpoint measurement. This approach allowed us to capture the time when cultures reached a threshold optical density (start-growth-time, SGT[15]).
Overnight cultures of UPEC, P. aeruginosa and S. aureus were grown in test tubes containing 3 ml of LB broth (~16 h), then diluted 1:100 into either 1:4 diluted CA-MHB medium buffered with 40 mM HEPES (pH 7.4) or, in case of UPEC, into LPM medium[25] supplemented with 49 µM MgCl2 and buffered with 30 mM MES (pH 5.5). The cultures were incubated for 24 h in non-baffled Erlenmeyer flasks at 37 °C with shaking at 200 rpm.
For P. aeruginosa and S. aureus, dose–response analysis was conducted in 96-well plates with a 200 μl assay volume, following the procedure used for screening assay validation experiments. Aliquots of the 39 compounds active against non-growing UPEC were obtained from SelleckChem and MedChem Express. Stock solutions were prepared and stored according to the manufacturers’ instructions, then diluted in 10% DMSO before use. Cultures were incubated for 24 h in 1:4 diluted CA-MHB medium under the same conditions used for UPEC cultivation. In preliminary experiments, each compound was tested at a concentration of 20 μM in the dilution-regrowth assay with 4 technical replicates. Regrowth was monitored using a microplate reader at 37 °C with continuous shaking, and OD600 was recorded every 20 min. The time at which OD600 exceeded the threshold of 0.12 was recorded as the Start_Growth-Time.
The statistical analysis of all data, as well as EC50 and IC50 determination, was conducted using GraphPad Prism 10.2.3. Statistical significance of the drug effects was assessed using a one-way ANOVA followed by Dunnett’s test, comparing each treatment to the drug-free control. Statistical significance of the differences in chemical characteristics between the hit compounds and the Prestwick library was assessed using a Mann–Whitney test. Statistical significance was set at P ≤ 0.05. A five-parameter logistic equation was used for asymmetric sigmoidal curve fitting and for EC50 and IC50 determination. The Venn diagram in Fig. 1F was prepared using BioVenn web application. Characteristics of the chemical and physical properties of Prestwick library compounds were obtained from Supplementary Table S1 from reference. Characteristics of the hit compounds not included in the Prestwick library were retrieved from the PubChem database.

S. flexneri 5a M90T = assay: MIC in tryptic soy broth, S. flexneri; format: cell-based, Shigella flexneri
Outline: as §1

[2] = Escherichia coli, pH 7.4, CA-MHB, read-out: MIC (μM) CA-MHB
[3] = E. coli in 1:4 CA-MHB (pH 7.4), drug concentration 10
[4] = E. coli in 1:4 CA-MHB (pH 7.4), drug concentration 30
[5] = E. coli in LPM (pH 5.5), drug concentration 10
[6] = E. coli in LPM (pH 5.5), drug concentration 30
[7] = 1:4 CA-MHB pH 7.4 (black curve), medium assigned by comparison with Dataset 1, read-out: EC50 (regrowth inhibition curve, Fig. S4)
[8] = E. coli, pH 7.4, regrowth delay of non-growing bacteria, 1:4 CA-MHB, 24 h treatment, OD600 6 h after 2500-fold dilution, read-out: EC50
[9] = LPM pH 5.5 (red curve), medium assigned by comparison with Dataset 1, read-out: EC50 (regrowth inhibition curve, Fig. S4)
[10] = E. coli in 1:4 CA-MHB (pH 7.4), drug concentration 0.25
[11] = E. coli in 1:4 CA-MHB (pH 7.4), drug concentration 0.5
[12] = E. coli in 1:4 CA-MHB (pH 7.4), drug concentration 1
[13] = E. coli in 1:4 CA-MHB (pH 7.4), drug concentration 2.5
[14] = E. coli in 1:4 CA-MHB (pH 7.4), drug concentration 5
[15] = E. coli in LPM (pH 5.5), drug concentration 0.25
[16] = E. coli in LPM (pH 5.5), drug concentration 0.5
[17] = E. coli in LPM (pH 5.5), drug concentration 1
[18] = E. coli in LPM (pH 5.5), drug concentration 2.5
[19] = E. coli in LPM (pH 5.5), drug concentration 5

Molecule | MIC (E. coli CFT073 (UPEC); [2]) [µM] | MIC (S. aureus DSM2569; Staphylococcus aureus, DSM2569) [µM] | Regrowth, OD600 at 6h or 8h after dilution into drug-free medium (average) (non-growing UPEC CFT073; [3]) | Regrowth, OD600 at 6h or 8h after dilution into drug-free medium (average) (non-growing UPEC CFT073; [4]) | Regrowth, OD600 at 6h or 8h after dilution into drug-free medium (average) (non-growing UPEC CFT073; [5]) | Regrowth, OD600 at 6h or 8h after dilution into drug-free medium (average) (non-growing UPEC CFT073; [6]) | pEC50 (non-growing UPEC CFT073; [7]) | pEC50 (non-growing UPEC CFT073; [8]) | pEC50 (non-growing UPEC CFT073; [9]) | activity against non-growing UPEC in LPM (pH 5.5) compared to 1:4 CA-MHB (pH 7.4) (non-growing UPEC CFT073) | Regrowth, OD600 at 6h or 8h after dilution into drug-free medium (average) (non-growing UPEC CFT073; [10]) | Regrowth, OD600 at 6h or 8h after dilution into drug-free medium (average) (non-growing UPEC CFT073; [11]) | Regrowth, OD600 at 6h or 8h after dilution into drug-free medium (average) (non-growing UPEC CFT073; [12]) | Regrowth, OD600 at 6h or 8h after dilution into drug-free medium (average) (non-growing UPEC CFT073; [13]) | Regrowth, OD600 at 6h or 8h after dilution into drug-free medium (average) (non-growing UPEC CFT073; [14]) | Regrowth, OD600 at 6h or 8h after dilution into drug-free medium (average) (non-growing UPEC CFT073; [15]) | Regrowth, OD600 at 6h or 8h after dilution into drug-free medium (average) (non-growing UPEC CFT073; [16]) | Regrowth, OD600 at 6h or 8h after dilution into drug-free medium (average) (non-growing UPEC CFT073; [17]) | Regrowth, OD600 at 6h or 8h after dilution into drug-free medium (average) (non-growing UPEC CFT073; [18]) | Regrowth, OD600 at 6h or 8h after dilution into drug-free medium (average) (non-growing UPEC CFT073; [19]) | further results
CCCCCCCCN=c1ccn(CCCCCCCCCCn2ccc(=NCCCCCCCC)cc2)cc1 [Octenidine] | 1 (≈ 0.551 µg/mL) | 1 (≈ 0.551 µg/mL) | 0.188 | 0.074 | 0.071 | 0.077 | 5.10 | 5.12 | 5.36 | potentiated by the low pH |  |  |  |  |  |  |  |  |  |  | MIC (E. coli CFT073 (UPEC); Escherichia coli, LPM pH 5.5, read-out: MIC): 0.5 µM (≈ 0.275 µg/mL); MIC (P. aeruginosa DSM1117): 4 µM (≈ 2.2 µg/mL); Regrowth, OD600 at 6h or 8h after dilution into drug-free medium (non-growing UPEC CFT073; E. coli in 1:4 CA-MHB (pH 7.4), concentration 0.25): 0.612; Regrowth, OD600 at 6h or 8h after dilution into drug-free medium (non-growing UPEC CFT073; E. coli in 1:4 CA-MHB (pH 7.4), concentration 0.5): 0.602; Regrowth, OD600 at 6h or 8h after dilution into drug-free medium (non-growing UPEC CFT073; E. coli in 1:4 CA-MHB (pH 7.4), concentration 1): 0.603; Regrowth, OD600 at 6h or 8h after dilution into drug-free medium (non-growing UPEC CFT073; E. coli in 1:4 CA-MHB (pH 7.4), concentration 2.5): 0.605; Regrowth, OD600 at 6h or 8h after dilution into drug-free medium (non-growing UPEC CFT073; E. coli in 1:4 CA-MHB (pH 7.4), concentration 5): 0.549; Regrowth, OD600 at 6h or 8h after dilution into drug-free medium (non-growing UPEC CFT073; E. coli in LPM (pH 5.5), concentration 0.25): 0.551; Regrowth, OD600 at 6h or 8h after dilution into drug-free medium (non-growing UPEC CFT073; E. coli in LPM (pH 5.5), concentration 0.5): 0.543; Regrowth, OD600 at 6h or 8h after dilution into drug-free medium (non-growing UPEC CFT073; E. coli in LPM (pH 5.5), concentration 1): 0.551; Regrowth, OD600 at 6h or 8h after dilution into drug-free medium (non-growing UPEC CFT073; E. coli in LPM (pH 5.5), concentration 2.5): 0.544; Regrowth, OD600 at 6h or 8h after dilution into drug-free medium (non-growing UPEC CFT073; E. coli in LPM (pH 5.5), concentration 5): 0.198; Regrowth, OD600 at 6h or 8h after dilution into drug-free medium ([1]; concentration 0.1): 0.666; Regrowth, OD600 at 6h or 8h after dilution into drug-free medium ([1]; concentration 0.5): 0.602; Regrowth, OD600 at 6h or 8h after dilution into drug-free medium ([1]; concentration 2.5): 0.656; Regrowth, OD600 at 6h or 8h after dilution into drug-free medium (average) ([1]; drug concentration 10): 0.533; pEC50 ([1]; Pseudomonas aeruginosa, DSM1117, regrowth delay of non-growing bacteria, 1:4 CA-MHB pH 7.4, 24 h treatment, OD600 8 h after dilution, read-out: EC50): 5.00
Plicamycin |  |  | 0.615 | 0.623 | 0.546 | 0.390 |  |  |  | potentiated by the low pH | 0.612 | 0.607 | 0.618 | 0.623 | 0.619 | 0.574 | 0.571 | 0.572 | 0.561 | 0.562 | MIC (E. coli CFT073 (UPEC); LPM pH 5.5, read-out: MIC): 32 µM; MIC (E. coli CFT073 (UPEC); pH 7.4, CA-MHB, read-out: MIC (μM) CA-MHB): 160 µM; MIC (S. aureus DSM2569): 0.25 µM; MIC (μM) TSB (S. flexneri 5a M90T; S. flexneri, extracellular bacteria in TSB): >128 µM
CCCCC(CC)CNC(=N)NC(=N)NCCCCCCNC(=N)NC(=N)NCC(CC)CCCC (stereo not shown) [Alexidine] | 2 (≈ 1.02 µg/mL) | 1 (≈ 0.509 µg/mL) | 0.568 | 0.074 | 0.067 | 0.069 | 4.63 | 4.81 | 5.14 | potentiated by the low pH | 0.643 | 0.630 | 0.631 | 0.636 | 0.622 | 0.604 | 0.591 | 0.602 | 0.604 | 0.576 | MIC (S. flexneri 5a M90T; Shigella flexneri, 5AM90T, read-out: MIC (μM) TSB): 1 µM (≈ 0.509 µg/mL)
